# pEC50: −log10 of the molar value. Where two headings read alike, the source gives them in different places.
# Target: T1, human RXFP1 (Homo sapiens, UniProt Q9HBX9)
# T1 construct: expressed in transfected cells
# T1 sequence (Q9HBX9 1-757): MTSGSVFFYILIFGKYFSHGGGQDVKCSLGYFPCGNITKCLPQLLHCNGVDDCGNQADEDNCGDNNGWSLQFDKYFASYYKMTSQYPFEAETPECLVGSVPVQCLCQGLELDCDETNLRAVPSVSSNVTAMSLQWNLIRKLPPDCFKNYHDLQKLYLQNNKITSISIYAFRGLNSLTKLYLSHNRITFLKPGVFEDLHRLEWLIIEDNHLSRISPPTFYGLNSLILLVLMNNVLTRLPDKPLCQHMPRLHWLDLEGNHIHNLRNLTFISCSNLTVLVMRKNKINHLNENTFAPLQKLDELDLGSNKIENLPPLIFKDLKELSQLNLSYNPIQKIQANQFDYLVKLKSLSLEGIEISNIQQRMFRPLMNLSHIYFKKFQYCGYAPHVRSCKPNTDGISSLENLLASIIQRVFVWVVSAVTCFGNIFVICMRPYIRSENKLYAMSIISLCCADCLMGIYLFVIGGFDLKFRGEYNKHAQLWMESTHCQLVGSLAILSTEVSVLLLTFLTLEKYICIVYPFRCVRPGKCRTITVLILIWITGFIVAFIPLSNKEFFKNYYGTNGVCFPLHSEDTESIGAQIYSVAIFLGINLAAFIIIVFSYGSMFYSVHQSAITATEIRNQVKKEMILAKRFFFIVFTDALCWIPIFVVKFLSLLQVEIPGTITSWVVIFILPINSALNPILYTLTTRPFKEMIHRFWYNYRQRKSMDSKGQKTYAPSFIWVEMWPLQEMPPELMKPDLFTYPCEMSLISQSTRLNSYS
# Assay: RXFP1 cAMP assay (hRXFP1 HEK293 cAMP assay, HTRF)
# Assay type: cell-based
# In short: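 hRXFP1-HEK293 stable line; HBSS + Ca/Mg, 20 mM HEPES, 0.05% BSA, 0.5 mM IBMX; cpd 0.010 nM–50 μM, 2% DMSO; 30 min RT; lysis, HTRF cAMP detection; 4-PL fit.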
# [1] = HEK293 cells stably expressing human RXFP1, 30 min at room temperature, read-out: cAMP hRXFP1 HEK293 Assay EC50
pEC50 [1],Structure (SMILES),"pEC50 (cAMP hRXFP1 HEK293 Assay EC50, HEK293 cells stably expressing human RXFP1, 30 min at room temperature)"
6.24,"COc1ccc(C2=NOC3C(O)CC(O)C23)cc1C(=O)N[C@H]1[C@@H](C(=O)Nc2ccc(F)c(C(F)(F)F)c2)[C@H]2CC[C@@H]1/C2=C\C1CC1 (single isomer, unassigned) [compound 680]",–
9.05,COc1c(F)cc(C2=NOC3CC(CO)CC23)cc1C(=O)N[C@H]1[C@@H](C(=O)N[C@H](C)C2(C)CC2)[C@H]2CC[C@@H]1/C2=C\C1CC1 (some centres unmarked) [compound 757],–
6.46,COc1ccc(C2=NOC(CC(C)(C)O)C2)cc1C(=O)N[C@H]1[C@@H](C(=O)NCC(C)(C)C)[C@H]2CC[C@@H]1/C2=C\C1CC1 (some centres unmarked) [compound 660],–
9.00,CCC/C=C1\[C@H]2CC[C@@H]1[C@H](C(=O)Nc1ccc(F)c(C(F)(F)F)c1)[C@@H]2NC(=O)c1cc(C2=NOC3CC(CO)CC23)ccc1OC (some centres unmarked) [compound 800],–
8.47,COc1cc(C)c(C2=NOC3CC(CO)CC23)cc1C(=O)N[C@H]1[C@@H](C(=O)Nc2ccc(F)c(C(F)(F)F)c2)[C@H]2CC[C@@H]1C2CC1CC1 (some centres unmarked) [compound 739],–
8.43,COc1ccc(-c2ccc(C(CC(=O)O)C(F)(F)F)cc2F)cc1C(=O)N[C@H]1[C@@H](C(=O)Nc2ccc(F)c(C(F)(F)F)c2)[C@H]2CC[C@@H]1/C2=C\C1CCCC1 (some centres unmarked) [compound 891],–
8.29,COc1ccc(-c2cc(C(COC(=O)NC3CCC3)C(F)(F)F)ccc2F)cc1C(=O)N[C@H]1[C@@H](C(=O)Nc2ccc(F)c(C(F)(F)F)c2)[C@H]2CC[C@@H]1/C2=C\C1CC1 (some centres unmarked) [compound 878],–
8.34,COc1ccc(C2=NOC3CC(CO)CC23)cc1C(=O)N[C@H]1[C@@H](C(=O)Nc2ccc(F)c(C(F)(F)F)c2)[C@H]2CC[C@@H]1/C2=C\c1ccncn1 (some centres unmarked) [compound 809],–
9.10,COc1c(F)cc(C2=NOC3COCC23)cc1C(=O)N[C@H]1[C@@H](C(=O)Nc2ccc(F)c(C(F)(F)F)c2)[C@H]2CC[C@@H]1/C2=C\C1CC1 (some centres unmarked) [compound 791],–
8.07,COc1ccc(-c2cc(C3=NOC(C(=O)O)C3)ccc2F)cc1C(=O)N[C@H]1[C@@H](C(=O)Nc2ccc(F)c(C(F)(F)F)c2)[C@H]2CC[C@@H]1/C2=C\C1CC1 (some centres unmarked) [compound 947],–
8.43,COc1ccc(C2=NO[C@H]3C[C@H](CO)CN23)cc1C(=O)N[C@H]1[C@@H](C(=O)Nc2ccc(F)c(C(F)(F)F)c2)[C@H]2CC[C@@H]1/C2=C\C(C)C [compound 833],–
6.68,COc1ccc([C@H]2CO[C@@H]3[C@H]2OC[C@H]3O)cc1C(=O)N[C@H]1[C@@H](C(=O)Nc2ccc(F)c(C(F)(F)F)c2)[C@H]2CC[C@@H]1/C2=C\C1CC1 [compound 638],–
6.51,"COc1ccc(C2=NOC(CO)C2CO)cc1C(=O)N[C@H]1[C@@H](C(=O)Nc2ccc(F)c(C(F)(F)F)c2)[C@H]2CC[C@@H]1/C2=C\C1CC1 (single isomer, unassigned) [compound 657]",–
8.09,COc1ccc(-c2cc([C@H](O)C(F)(F)F)ccc2F)cc1C(=O)N[C@H]1[C@@H](C(=O)Nc2ccc(F)c(C(F)(F)F)c2)[C@H]2CC[C@@H]1/C2=C\C1CCC1 [compound 921],–
8.48,COc1ccc(-c2cc(C(CC(=O)O)C(F)(F)F)ccc2F)cc1C(=O)N[C@H]1[C@@H](C(=O)Nc2ccc(F)c(C(F)(F)F)c2)[C@H]2CC[C@@H]1/C2=C\C1CC1 (some centres unmarked) [compound 873],–
6.15,COc1cc(F)c(F)cc1C(=O)N[C@@H]1C2CCC(C2Cc2ccccc2)[C@@H]1C(=O)Nc1ccc(F)c(C(F)(F)F)c1 (some centres unmarked) [compound 976],–
8.36,O=C(N[C@H]1[C@@H](C(=O)Nc2ccc(F)c(C(F)(F)F)c2)[C@H]2CC[C@@H]1/C2=C\C1CC1)c1cc(C2=NOC3CC(CO)CC23)cc(F)c1OCC(F)F (some centres unmarked) [compound 789],–
5.30,"O=C(N[C@H]1[C@@H](C(=O)Nc2ccc(F)c(C(F)(F)F)c2)[C@H]2CC[C@@H]1/C2=C\C1CC1)c1cc(C2=NOC3CC(CO)CC23)ccc1F (single isomer, unassigned) [compound 723]",–

# The next lines start with the compound.
Structure (SMILES),pEC50 [1],"pEC50 (cAMP hRXFP1 HEK293 Assay EC50, HEK293 cells stably expressing human RXFP1, 30 min at room temperature)"
COc1cc(F)c(F)cc1C(=O)N[C@@H]1C2CCC(/C2=C/c2c(Cl)cccc2Cl)[C@@H]1C(=O)Nc1ccc(F)c(C(F)(F)F)c1 (some centres unmarked) [compound 69],–,5.43
"COc1ccc(C2=NOC3CC(CO)CC23)cc1C(=O)N[C@@H]1C2CCC(/C2=C/C2CC2)[C@@H]1C(=O)Nc1ccc(F)c(C(F)(F)F)c1 (single isomer, unassigned) [Example 430]",6.71,–
COCCOCCOc1ccc(-c2cc(C(=O)O)ccc2F)cc1C(=O)N[C@@H]1C2CCC(/C2=C/c2ccccc2)[C@@H]1C(=O)Nc1ccc(F)c(C(F)(F)F)c1 (some centres unmarked) [Example 199],6.89,–
COc1ccc(C2=NOC3COCC23)cc1C(=O)N[C@H]1[C@@H](C(=O)NCC2C(C)(C)C2(C)C)[C@H]2CC[C@@H]1/C2=C\C1CC1 (some centres unmarked) [compound 586],7.10,–
"COc1ccc(C2=NOC(C3(O)CC3)C2)cc1C(=O)N[C@H]1[C@@H](C(=O)Nc2ccc(F)c(C(F)(F)F)c2)[C@H]2CC[C@@H]1/C2=C\C1CC1 (single isomer, unassigned) [compound 491]",8.06,–
COc1ccc(C2=NOC3COCC23)cc1C(=O)N[C@H]1[C@@H](C(=O)NCc2ccccc2OC(F)(F)F)[C@H]2CC[C@@H]1/C2=C\C1CC1 (some centres unmarked) [compound 588],7.09,–
"COc1ccc(-c2cc(CO)on2)cc1C(=O)N[C@H]1[C@@H](C(=O)Nc2ccc(F)c(C(F)(F)F)c2)[C@H]2CC[C@@H]1/C2=C\C1CC1 [Example 423, (1R,2S,3R,4R,Z)-7-(cyclopropylmethylene)-N-(4-fluoro-3-(trifluoromethyl)phenyl)-3-(5-(5-(hydroxymethyl)isoxazol-3-yl)-2-methoxybenzamido)bicyclo [2.2.1]heptane-2-carboxamide]",7.55,–
COc1cc(F)c(F)cc1C(=O)N[C@@H]1C2CCC(/C2=C/c2ccco2)[C@@H]1C(=O)Nc1ccc(F)c(C(F)(F)F)c1 (some centres unmarked) [compound 123],6.68,–
COc1ccc(-c2cc(C(=O)O)ccc2F)cc1C(=O)N[C@@H]1C2CCC(/C2=C/C2CC2)[C@@H]1C(=O)NC(C)c1nccs1 (some centres unmarked) [compound 309],5.36,–
COc1ccc(C2=NOC3CC(CO)CC23)cc1C(=O)N[C@H]1[C@@H](C(=O)Nc2ccc(F)c(C(F)(F)F)c2)[C@H]2CC[C@@H]1/C2=C\C1CCCC1 (some centres unmarked) [compound 445],9.30,–
COc1ccc(-c2cc(C(O)C(=O)O)ccc2F)cc1C(=O)NC1C2CCC(/C2=C/C2CCC2)C1C(=O)Nc1ccc(F)c(C(F)(F)F)c1 (centres unmarked) [compound 356],8.30,–
COc1ccc(C2=NOC3COCC23)cc1C(=O)N[C@H]1[C@@H](C(=O)NC2CCC2)[C@H]2CC[C@@H]1/C2=C\C1CC1 (some centres unmarked) [compound 635],6.72,–
"CN(C)c1c(Cl)cc(C2=NOC3COCC23)cc1C(=O)N[C@H]1[C@@H](C(=O)Nc2ccc(F)c(C(F)(F)F)c2)[C@H]2CC[C@@H]1/C2=C\C1CC1 (single isomer, unassigned) [compound 474]",8.30,–
COc1ccc(-c2ccnc(N3CCOCC3)c2F)cc1C(=O)N[C@H]1[C@@H](C(=O)Nc2ccc(F)c(C(F)(F)F)c2)[C@H]2CC[C@@H]1C2=C(C)C [compound 85],6.89,–
COc1ccc(C2=NOC3COCC23)cc1C(=O)N[C@H]1[C@@H](C(=O)NCc2ccccc2C2CC2)[C@H]2CC[C@@H]1/C2=C\C1CC1 (some centres unmarked) [compound 606],6.92,–
COc1ccc(C2=NOC3(CCNC3)C2)cc1C(=O)N[C@H]1[C@@H](C(=O)Nc2ccc(F)c(C(F)(F)F)c2)[C@H]2CC[C@@H]1/C2=C\C1CC1 (some centres unmarked) [compound 593],7.05,–
CNC(=O)OC(C(=O)NC)c1ccc(F)c(-c2ccc(OC)c(C(=O)N[C@@H]3C4CCC(/C4=C/C4CC4)[C@@H]3C(=O)Nc3ccc(F)c(C(F)(F)F)c3)c2)c1 (some centres unmarked) [compound 235],9.00,–
"COc1ccc(C2=NOC3CC(CO)CC23)cc1C(=O)N[C@@H]1C2CCC(/C2=C/C2CC2)[C@@H]1C(=O)Nc1ccc(F)c(C(F)(F)F)c1 (single isomer, unassigned) [compound 431]",6.60,–
COc1ccc(C2=NOC3CC(CO)CC23)cc1C(=O)N[C@H]1[C@@H](C(=O)Nc2ccc(F)c(C(F)(F)F)c2)[C@H]2CC[C@@H]1/C2=C\C(F)(F)F (some centres unmarked) [compound 533],7.63,–
COc1ccc(C2=NOC3COCC23)cc1C(=O)N[C@H]1[C@@H](C(=O)N[C@@H]2CCCc3ccccc32)[C@H]2CC[C@@H]1/C2=C\C1CC1 (some centres unmarked) [compound 538],7.58,–
COc1ccc(C2=NOC3COCC23)cc1C(=O)N[C@H]1[C@@H](C(=O)N[C@H](C)c2ccccc2C(F)(F)F)[C@H]2CC[C@@H]1/C2=C\C1CC1 (some centres unmarked) [compound 510],7.82,–
COc1cc(F)c(F)cc1C(=O)N[C@@H]1C2CCC(/C2=C/C(C)(C)O)[C@@H]1C(=O)Nc1ccc(F)c(C(F)(F)F)c1 (some centres unmarked) [Example 65],5.70,–
COc1ccc(-c2cc(C(=O)O)ccc2F)cc1C(=O)N[C@@H]1C2CCC(/C2=C/c2cn(C)nn2)[C@@H]1C(=O)Nc1ccc(F)c(C(F)(F)F)c1 (some centres unmarked) [compound 327],5.69,–
